Reference: patent publication US8192962B2, “Processes for detecting toxic substances” (Daikin Industries, Ltd., priority 2001, dated 2012)

System: Energy system protein genes
Assay: DNA chip mRNA expression in yeast, energy system protein genes (Table 4)
Format: cell-based, Saccharomyces cerevisiae S288C
Experimental: Yeast (Saccharomyces cerevisiae S288C (α SUC2mal mel gap2 CUP1)) were incubated at 25° C. on YPD medium (yeast extract 1%, polypepton 2%, glucose 2%). One of toxic chemical substances was added to the cells at logarithmic growth phase, and the cells were further incubated for two hours. Cells were cultured without any chemical substance in the same condition, and were used as control. Concentrations of the chemical substances were defined to inhibit the growth of the yeast but not lead to death.
After completion of the incubation, the culture was centrifuged to collect the cells. To the cells, sodium acetate buffer (50 mM sodium acetate, 10 mM EDTA, 1% SDS) was added, and the mixture was shaken at 65° C. for five minutes, followed by returning to room temperature, and obtaining the supernatant, of which the procedures were repeated two times. To the supernatant, ½ amount of a solution of phenol/chloroform was added, and the mixture was centrifuged to give a supernatant, which was added with an equal amount of chloroform, and the mixture was centrifuged to give a supernatant. To the supernatant, an equal amount of isopropanol containing 0.3 M sodium acetate was added, and the mixture was allowed to stand at room temperature for 30 minutes, after which the mixture was centrifuged to give a sediment of the whole RNAs. Seventy % ethanol was added to the sediment, and the mixture was again centrifuged to give a sediment, which was then dried and dissolved in water. mRNA was isolated from the whole RNAs as followings. In view of the fact that a poly A chain is attached to the 3′ terminus of mRNA, a polynucleotide having a poly T structure which was immobilized on the surface of latex beads was used to trap the mRNA, and then the mRNA was washed and eluted with spine column (Oligotex-dT30<Super>mRNA Purification Kit, Takara). Reverse transcription of the mRNA was conducted with a reverse transcriptase (Super Script II Reverse Transcriptase; catalogue No. 18064-014, GibcoBRL) using fluorescence-labeled nucleotides to give cDNAs that were introduced with Cy3-dUTP or Cy5-dUTP during the reverse transcription.
The labeled cDNAs were dissolved in TE buffer (10mM Tris-HCl/1 mM EDTA, pH8.0), and the solution was dropped on the DNA chip containing the whole genes of yeast (DNA Chip Research Inc. Japan) so that the cDNAs were hybridized on the DNA chip at 65° C. for over 12 hours. The fluoresces intensity of the DNA chip was read with a scanner, and the ratio relative to the fluorescence intensity resulting from the absence of chemical substance was estimated as the following, which is shown in Tables 1 to 9: […]

Compound: [Cl][Hg][Cl] [(3), HgCl2]
- The level of expressed mRNA in the presence of chemical substance/The level of expressed mRNA in the absence of chemical substance (yeast gene YJR048W): 2.2
- The level of expressed mRNA in the presence of chemical substance/The level of expressed mRNA in the absence of chemical substance (yeast gene YJR121W, cells incubated two hours with the chemical substance): 3.3
- The level of expressed mRNA in the presence of chemical substance/The level of expressed mRNA in the absence of chemical substance (yeast gene YJR155W): 1.4
- The level of expressed mRNA in the presence of chemical substance/The level of expressed mRNA in the absence of chemical substance (yeast gene YKL016C, cells incubated two hours with the chemical substance): 0.7
- The level of expressed mRNA in the presence of chemical substance/The level of expressed mRNA in the absence of chemical substance (yeast gene YKL060C, cells incubated two hours with the chemical substance): 2.5
- The level of expressed mRNA in the presence of chemical substance/The level of expressed mRNA in the absence of chemical substance (yeast gene YKL141W, cells incubated two hours with the chemical substance): 4.7
- The level of expressed mRNA in the presence of chemical substance/The level of expressed mRNA in the absence of chemical substance (yeast gene YKL148C, cells incubated two hours with the chemical substance): 3.7
- The level of expressed mRNA in the presence of chemical substance/The level of expressed mRNA in the absence of chemical substance (yeast gene YKR009C, cells incubated two hours with the chemical substance): 1.5
- The level of expressed mRNA in the presence of chemical substance/The level of expressed mRNA in the absence of chemical substance (yeast gene YKR058W, cells incubated two hours with the chemical substance, 25° C., YPD medium): 1.4
- The level of expressed mRNA in the presence of chemical substance/The level of expressed mRNA in the absence of chemical substance (yeast gene YKR097W): 1.3
- The level of expressed mRNA in the presence of chemical substance/The level of expressed mRNA in the absence of chemical substance (yeast gene YLL041C, cells incubated two hours with the chemical substance): 4.6
- The level of expressed mRNA in the presence of chemical substance/The level of expressed mRNA in the absence of chemical substance (yeast gene YLR038C, cells incubated two hours with the chemical substance): 0.6
- The level of expressed mRNA in the presence of chemical substance/The level of expressed mRNA in the absence of chemical substance (yeast gene YLR044C, cells incubated two hours with the chemical substance): 2.2
- The level of expressed mRNA in the presence of chemical substance/The level of expressed mRNA in the absence of chemical substance (yeast gene YLR134W, cells incubated two hours with the chemical substance): 2.3
- The level of expressed mRNA in the presence of chemical substance/The level of expressed mRNA in the absence of chemical substance (yeast gene YLR258W, cells incubated two hours with the chemical substance): 4.2
- The level of expressed mRNA in the presence of chemical substance/The level of expressed mRNA in the absence of chemical substance (yeast gene YLR284C, cells incubated two hours with the chemical substance): 3.8
- The level of expressed mRNA in the presence of chemical substance/The level of expressed mRNA in the absence of chemical substance (yeast gene YLR295C, cells incubated two hours with the chemical substance, 25° C., YPD medium): 1.1
- The level of expressed mRNA in the presence of chemical substance/The level of expressed mRNA in the absence of chemical substance (yeast gene YLR304C, cells incubated two hours with the chemical substance): 5.0
- The level of expressed mRNA in the presence of chemical substance/The level of expressed mRNA in the absence of chemical substance (yeast gene YLR345W): 1.4
- The level of expressed mRNA in the presence of chemical substance/The level of expressed mRNA in the absence of chemical substance (yeast gene YLR354C, cells incubated two hours with the chemical substance): 2.3
- The level of expressed mRNA in the presence of chemical substance/The level of expressed mRNA in the absence of chemical substance (yeast gene YLR377C, cells incubated two hours with the chemical substance): 1.8
- The level of expressed mRNA in the presence of chemical substance/The level of expressed mRNA in the absence of chemical substance (yeast gene YLR395C, cells incubated two hours with the chemical substance): 2.2
- The level of expressed mRNA in the presence of chemical substance/The level of expressed mRNA in the absence of chemical substance (yeast gene YML087C): 0.8
- The level of expressed mRNA in the presence of chemical substance/The level of expressed mRNA in the absence of chemical substance (yeast gene YML120C, cells incubated two hours with the chemical substance): 1.9
- The level of expressed mRNA in the presence of chemical substance/The level of expressed mRNA in the absence of chemical substance (yeast gene YML129C, cells incubated two hours with the chemical substance): 0.9
- The level of expressed mRNA in the presence of chemical substance/The level of expressed mRNA in the absence of chemical substance (yeast gene YMR073C, cells incubated two hours with the chemical substance): 1.2
- The level of expressed mRNA in the presence of chemical substance/The level of expressed mRNA in the absence of chemical substance (yeast gene YMR118C): 1.4
- The level of expressed mRNA in the presence of chemical substance/The level of expressed mRNA in the absence of chemical substance (yeast gene YMR205C, cells incubated two hours with the chemical substance): 2.3
- The level of expressed mRNA in the presence of chemical substance/The level of expressed mRNA in the absence of chemical substance (yeast gene YMR261C, cells incubated two hours with the chemical substance): 3.6
- The level of expressed mRNA in the presence of chemical substance/The level of expressed mRNA in the absence of chemical substance (yeast gene YMR267W, cells incubated two hours with the chemical substance, 25° C., YPD medium): 0.7
- The level of expressed mRNA in the presence of chemical substance/The level of expressed mRNA in the absence of chemical substance (yeast gene YMR323W, cells incubated two hours with the chemical substance): 2.9
- The level of expressed mRNA in the presence of chemical substance/The level of expressed mRNA in the absence of chemical substance (yeast gene YNL071W): 1.7
- The level of expressed mRNA in the presence of chemical substance/The level of expressed mRNA in the absence of chemical substance (yeast gene YNL202W, cells incubated two hours with the chemical substance): 1.2
- The level of expressed mRNA in the presence of chemical substance/The level of expressed mRNA in the absence of chemical substance (yeast gene YNL241C): 4.3
- The level of expressed mRNA in the presence of chemical substance/The level of expressed mRNA in the absence of chemical substance (yeast gene YNL331C): 1.3
- The level of expressed mRNA in the presence of chemical substance/The level of expressed mRNA in the absence of chemical substance (yeast gene YOL086C, cells incubated two hours with the chemical substance): 2.2
- The level of expressed mRNA in the presence of chemical substance/The level of expressed mRNA in the absence of chemical substance (yeast gene YOL165C): 1.8
- The level of expressed mRNA in the presence of chemical substance/The level of expressed mRNA in the absence of chemical substance (yeast gene YOR142W, cells incubated two hours with the chemical substance): 3.4
- The level of expressed mRNA in the presence of chemical substance/The level of expressed mRNA in the absence of chemical substance (yeast gene YOR178C, cells incubated two hours with the chemical substance): 4.8
- The level of expressed mRNA in the presence of chemical substance/The level of expressed mRNA in the absence of chemical substance (yeast gene YOR388C, cells incubated two hours with the chemical substance): 1.3
- The level of expressed mRNA in the presence of chemical substance/The level of expressed mRNA in the absence of chemical substance (yeast gene YPL031C, cells incubated two hours with the chemical substance): 1.4
- The level of expressed mRNA in the presence of chemical substance/The level of expressed mRNA in the absence of chemical substance (yeast gene YPL061W, cells incubated two hours with the chemical substance): 5.0
- The level of expressed mRNA in the presence of chemical substance/The level of expressed mRNA in the absence of chemical substance (yeast gene YPL088W): 0.6
- The level of expressed mRNA in the presence of chemical substance/The level of expressed mRNA in the absence of chemical substance (yeast gene YPL171C): 3.5
- The level of expressed mRNA in the presence of chemical substance/The level of expressed mRNA in the absence of chemical substance (yeast gene YPL240C): 2.4
- The level of expressed mRNA in the presence of chemical substance/The level of expressed mRNA in the absence of chemical substance (yeast gene YPL262W, cells incubated two hours with the chemical substance): 3.8
- The level of expressed mRNA in the presence of chemical substance/The level of expressed mRNA in the absence of chemical substance (yeast gene YPL275W, cells incubated two hours with the chemical substance): 1.3
- The level of expressed mRNA in the presence of chemical substance/The level of expressed mRNA in the absence of chemical substance (yeast gene YPL276W, cells incubated two hours with the chemical substance): 1.6
- The level of expressed mRNA in the presence of chemical substance/The level of expressed mRNA in the absence of chemical substance (yeast gene YPR048W, cells incubated two hours with the chemical substance): 0.9
- The level of expressed mRNA in the presence of chemical substance/The level of expressed mRNA in the absence of chemical substance (yeast gene YPR184W, cells incubated two hours with the chemical substance): 5.7
